{"source": "patent US20020137929A1", "about": "“1 - (3-heterocyclylphenyl) isothiourea, -isourea, -guanidine and -amidine herbicidal agents” (Intellectual Property Department, BASF Aktiengesellschaft, priority 1998, published 2002)", "key": {"[1]": {"test_system": "GLXMAW (Soybean, Williams)", "experiment": "Postemergence herbicidal evaluation", "assay_type": "in vivo, Glycine max, (L.) Merr. cv Williams", "conditions": "postemergence", "outline": "(§1)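 Seedlings grown about two weeks were sprayed at 40 psi with compound dispersed in 50/50 acetone/water plus 0.5% TWEEN 20, at about 0.0156 to 0.500 kg/ha. Plants were kept in the greenhouse and scored 4–5 weeks later on a 0–9 visual scale against untreated controls.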"}, "[2]": {"test_system": "CHEAL (Lambsquarters, Common)", "experiment": "Postemergence herbicidal evaluation", "assay_type": "in vivo, Chenopodium album", "conditions": "postemergence", "outline": "as §1"}, "ORYSAT (Rice, Tebonnet) [3]": {"test_system": "ORYSAT (Rice, Tebonnet)", "experiment": "Postemergence herbicidal evaluation", "assay_type": "in vivo, Oryza sativa, (L.) Tebonnet", "conditions": "postemergence", "outline": "as §1"}, "CASOB (Sicklepod)": {"test_system": "CASOB (Sicklepod)", "experiment": "Preemergence herbicidal evaluation", "assay_type": "in vivo, Cassia obtusifolia", "conditions": "rated 4-5 weeks after treatment", "outline": "(§2)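 Sown cups got a single aqueous acetone spray of test compound (roughly 0.0156–0.500 kg/ha) before seedlings emerged. Evaluation, 4–5 weeks on, used a 0–9 visual scale covering plant stand, vigor, size, malformation, chlorosis and general appearance compared with controls.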"}, "ZEAMX (Corn, Field) [4]": {"test_system": "ZEAMX (Corn, Field)", "experiment": "Postemergence herbicidal evaluation", "assay_type": "in vivo, Zea mays", "conditions": "postemergence", "outline": "as §1"}, "[5]": {"test_system": "IPOHE (Morningglory, Ivyleaf)", "experiment": "Preemergence herbicidal evaluation", "assay_type": "in vivo, Ipomoea hederacea", "conditions": "rated 4-5 weeks after treatment", "outline": "as §2"}, "[6]": {"test_system": "TRZAWR (Wheat, Winter, cv Riband)", "experiment": "Postemergence herbicidal evaluation", "assay_type": "in vivo, Triticum aestivum", "conditions": "postemergence", "outline": "as §1"}, "CYPSE (Flatsedge)": {"test_system": "CYPSE (Flatsedge)", "experiment": "Preemergence weed control under flooded paddy conditions", "assay_type": "in vivo, Cyperus serotinus", "conditions": "rated 3-4 weeks after treatment", "outline": "(§3)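 Ratings on a 0-9 visual scale cover stand, vigor, malformation, size, chlorosis and overall appearance relative to a control, taken three to four weeks post-treatment. Application was into flood water over freshly sown silt loam at roughly 0.0313 to 0.500 kg/ha.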"}, "ZEAMX (Corn, Field) [7]": {"test_system": "ZEAMX (Corn, Field)", "experiment": "Preemergence herbicidal evaluation", "assay_type": "in vivo, Zea mays", "conditions": "rated 4-5 weeks after treatment", "outline": "as §2"}, "[8]": {"test_system": "ECHORC (Watergrass (Calif.))", "experiment": "Preemergence weed control under flooded paddy conditions", "assay_type": "in vivo, Echinochloa oryzoides", "conditions": "rated 3-4 weeks after treatment", "outline": "as §3"}, "ORYSAT (Rice, Tebonnet) [9]": {"test_system": "ORYSAT (Rice, Tebonnet)", "experiment": "Preemergence herbicidal evaluation", "assay_type": "in vivo, Oryza sativa, (L.) Tebonnet", "conditions": "rated 4-5 weeks after treatment", "outline": "as §2"}, "SETVI (Foxtail, Green)": {"test_system": "SETVI (Foxtail, Green)", "experiment": "Preemergence herbicidal evaluation", "assay_type": "in vivo, Setaria viridis", "conditions": "rated 4-5 weeks after treatment", "outline": "as §2"}, "[10]": {"test_system": "CHEAL (Lambsquarters, Common)", "experiment": "Preemergence herbicidal evaluation", "assay_type": "in vivo, Chenopodium album", "conditions": "rated 4-5 weeks after treatment", "outline": "as §2"}, "ECHCG (Barnyardgrass)": {"test_system": "ECHCG (Barnyardgrass)", "experiment": "Postemergence herbicidal evaluation", "assay_type": "in vivo, Echinochloa crus-galli", "conditions": "postemergence", "outline": "as §1"}, "AMBEL (Ragweed, Common)": {"test_system": "AMBEL (Ragweed, Common)", "experiment": "Postemergence herbicidal evaluation", "assay_type": "in vivo, Ambrosia artemisifolia", "conditions": "postemergence", "outline": "as §1"}, "MOOVA (Monochoria)": {"test_system": "MOOVA (Monochoria)", "experiment": "Preemergence weed control under flooded paddy conditions", "assay_type": "in vivo, Monochoria vaginalis", "conditions": "rated 3-4 weeks after treatment", "outline": "as §3"}, "[11]": {"test_system": "IPOHE (Morningglory, Ivyleaf)", "experiment": "Postemergence herbicidal evaluation", "assay_type": "in vivo, Ipomoea hederacea", "conditions": "postemergence", "outline": "as §1"}}, "data": [{"compound": "CCOC(=O)CN1C(=O)C(Cc2ccccc2OCC(=O)O)S/C1=N/c1cc(-n2c(=O)cc(C(F)(F)F)n(C)c2=O)c(F)cc1Cl", "note": "(stereo not drawn) [Compound 113, 5-[o-(Carboxymethoxy)benzyl]-2-{{2-chloro-5-[3,6-dihydro-3-methyl-2,6-dioxo-4-(trifluoromethyl)-1(2H)-pyrimidinyl]-4-fluorophenyl}imino}-4-oxo-3-thiazolidineacetic acid, 3-ethyl ester]", "values": [{"measurement": "Herbicidal rating GLXMAW", "setting": "[1]; rate 0.0158 kg/ha", "result": 4.5}, {"measurement": "Herbicidal rating GLXMAW", "setting": "[1]; rate 0.0315 kg/ha", "result": 5.5}, {"measurement": "Herbicidal rating GLXMAW", "setting": "[1]; rate 0.0630 kg/ha", "result": 5.5}, {"measurement": "Herbicidal rating CHEAL", "setting": "[2]; rate 0.0158 kg/ha", "result": 5.0}, {"measurement": "Herbicidal rating CHEAL", "setting": "[2]; rate 0.0315 kg/ha", "result": 4.0}, {"measurement": "Herbicidal rating CHEAL", "setting": "[2]; rate 0.0630 kg/ha", "result": 7.0}, {"measurement": "Herbicidal rating ORYSAT", "setting": "ORYSAT (Rice, Tebonnet) [3]; rate 0.0158 kg/ha", "result": 2.0}, {"measurement": "Herbicidal rating ORYSAT", "setting": "ORYSAT (Rice, Tebonnet) [3]; rate 0.0315 kg/ha", "result": 2.0}, {"measurement": "Herbicidal rating ORYSAT", "setting": "ORYSAT (Rice, Tebonnet) [3]; rate 0.0630 kg/ha", "result": 2.5}, {"measurement": "Preemergence herbicidal rating CASOB", "setting": "CASOB (Sicklepod); rate 0.0156 kg/ha", "result": 0.0}, {"measurement": "Preemergence herbicidal rating CASOB", "setting": "CASOB (Sicklepod); rate 0.0313 kg/ha", "result": 0.0}, {"measurement": "Preemergence herbicidal rating CASOB", "setting": "CASOB (Sicklepod); rate 0.0625 kg/ha", "result": 0.0}, {"measurement": "Preemergence herbicidal rating CASOB", "setting": "CASOB (Sicklepod); rate 0.1250 kg/ha", "result": 0.0}, {"measurement": "Preemergence herbicidal rating CASOB", "setting": "CASOB (Sicklepod); rate 0.2500 kg/ha", "result": 0.0}, {"measurement": "Herbicidal rating ZEAMX", "setting": "ZEAMX (Corn, Field) [4]; rate 0.0158 kg/ha", "result": 4.0}, {"measurement": "Herbicidal rating ZEAMX", "setting": "ZEAMX (Corn, Field) [4]; rate 0.0315 kg/ha", "result": 4.5}, {"measurement": "Herbicidal rating ZEAMX", "setting": "ZEAMX (Corn, Field) [4]; rate 0.0630 kg/ha", "result": 4.5}, {"measurement": "Preemergence herbicidal rating IPOHE", "setting": "[5]; rate 0.0156 kg/ha", "result": 0.0}, {"measurement": "Preemergence herbicidal rating IPOHE", "setting": "[5]; rate 0.0313 kg/ha", "result": 0.0}, {"measurement": "Preemergence herbicidal rating IPOHE", "setting": "[5]; rate 0.0625 kg/ha", "result": 0.0}, {"measurement": "Preemergence herbicidal rating IPOHE", "setting": "[5]; rate 0.1250 kg/ha", "result": 0.0}, {"measurement": "Preemergence herbicidal rating IPOHE", "setting": "[5]; rate 0.2500 kg/ha", "result": 1.0}, {"measurement": "Herbicidal rating TRZAWR", "setting": "[6]; rate 0.0158 kg/ha", "result": 2.0}, {"measurement": "Herbicidal rating TRZAWR", "setting": "[6]; rate 0.0315 kg/ha", "result": 2.0}, {"measurement": "Herbicidal rating TRZAWR", "setting": "[6]; rate 0.0630 kg/ha", "result": 3.0}, {"measurement": "CYPSE herbicidal effect rating", "setting": "CYPSE (Flatsedge); 0.0313 kg/ha", "result": 0.0}, {"measurement": "CYPSE herbicidal effect rating", "setting": "CYPSE (Flatsedge); 0.0625 kg/ha", "result": 0.0}, {"measurement": "CYPSE herbicidal effect rating", "setting": "CYPSE (Flatsedge); 0.1250 kg/ha", "result": 0.0}, {"measurement": "CYPSE herbicidal effect rating", "setting": "CYPSE (Flatsedge); 0.2500 kg/ha", "result": 0.0}, {"measurement": "Preemergence herbicidal rating ZEAMX", "setting": "ZEAMX (Corn, Field) [7]; rate 0.0156 kg/ha", "result": 0.0}, {"measurement": "Preemergence herbicidal rating ZEAMX", "setting": "ZEAMX (Corn, Field) [7]; rate 0.0313 kg/ha", "result": 1.0}, {"measurement": "Preemergence herbicidal rating ZEAMX", "setting": "ZEAMX (Corn, Field) [7]; rate 0.0625 kg/ha", "result": 0.0}, {"measurement": "Preemergence herbicidal rating ZEAMX", "setting": "ZEAMX (Corn, Field) [7]; rate 0.1250 kg/ha", "result": 0.0}, {"measurement": "Preemergence herbicidal rating ZEAMX", "setting": "ZEAMX (Corn, Field) [7]; rate 0.2500 kg/ha", "result": 1.0}, {"measurement": "ECHORC herbicidal effect rating", "setting": "[8]; 0.0313 kg/ha", "result": 4.0}, {"measurement": "ECHORC herbicidal effect rating", "setting": "[8]; 0.0625 kg/ha", "result": 4.0}, {"measurement": "ECHORC herbicidal effect rating", "setting": "[8]; 0.1250 kg/ha", "result": 5.0}, {"measurement": "ECHORC herbicidal effect rating", "setting": "[8]; 0.2500 kg/ha", "result": 7.0}, {"measurement": "Preemergence herbicidal rating ORYSAT", "setting": "ORYSAT (Rice, Tebonnet) [9]; rate 0.0156 kg/ha", "result": 0.0}, {"measurement": "Preemergence herbicidal rating ORYSAT", "setting": "ORYSAT (Rice, Tebonnet) [9]; rate 0.0313 kg/ha", "result": 0.0}, {"measurement": "Preemergence herbicidal rating ORYSAT", "setting": "ORYSAT (Rice, Tebonnet) [9]; rate 0.0625 kg/ha", "result": 0.0}, {"measurement": "Preemergence herbicidal rating ORYSAT", "setting": "ORYSAT (Rice, Tebonnet) [9]; rate 0.1250 kg/ha", "result": 0.0}, {"measurement": "Preemergence herbicidal rating ORYSAT", "setting": "ORYSAT (Rice, Tebonnet) [9]; rate 0.2500 kg/ha", "result": 0.0}, {"measurement": "Preemergence herbicidal rating SETVI", "setting": "SETVI (Foxtail, Green); rate 0.0156 kg/ha", "result": 0.0}, {"measurement": "Preemergence herbicidal rating SETVI", "setting": "SETVI (Foxtail, Green); rate 0.0313 kg/ha", "result": 0.0}, {"measurement": "Preemergence herbicidal rating SETVI", "setting": "SETVI (Foxtail, Green); rate 0.0625 kg/ha", "result": 0.0}, {"measurement": "Preemergence herbicidal rating SETVI", "setting": "SETVI (Foxtail, Green); rate 0.1250 kg/ha", "result": 0.0}, {"measurement": "Preemergence herbicidal rating SETVI", "setting": "SETVI (Foxtail, Green); rate 0.2500 kg/ha", "result": 1.0}, {"measurement": "Preemergence herbicidal rating CHEAL", "setting": "[10]; rate 0.0156 kg/ha", "result": 6.0}, {"measurement": "Preemergence herbicidal rating CHEAL", "setting": "[10]; rate 0.0313 kg/ha", "result": 7.0}, {"measurement": "Preemergence herbicidal rating CHEAL", "setting": "[10]; rate 0.0625 kg/ha", "result": 0.0}, {"measurement": "Preemergence herbicidal rating CHEAL", "setting": "[10]; rate 0.1250 kg/ha", "result": 9.0}, {"measurement": "Preemergence herbicidal rating CHEAL", "setting": "[10]; rate 0.2500 kg/ha", "result": 9.0}, {"measurement": "Herbicidal rating ECHCG", "setting": "ECHCG (Barnyardgrass); rate 0.0158 kg/ha", "result": 0.0}, {"measurement": "Herbicidal rating ECHCG", "setting": "ECHCG (Barnyardgrass); rate 0.0315 kg/ha", "result": 1.0}, {"measurement": "Herbicidal rating ECHCG", "setting": "ECHCG (Barnyardgrass); rate 0.0630 kg/ha", "result": 1.0}, {"measurement": "Herbicidal rating AMBEL", "setting": "AMBEL (Ragweed, Common); rate 0.0158 kg/ha", "result": 5.0}, {"measurement": "Herbicidal rating AMBEL", "setting": "AMBEL (Ragweed, Common); rate 0.0315 kg/ha", "result": 9.0}, {"measurement": "Herbicidal rating AMBEL", "setting": "AMBEL (Ragweed, Common); rate 0.0630 kg/ha", "result": 9.0}, {"measurement": "MOOVA herbicidal effect rating", "setting": "MOOVA (Monochoria); 0.0313 kg/ha", "result": 9.0}, {"measurement": "MOOVA herbicidal effect rating", "setting": "MOOVA (Monochoria); 0.0625 kg/ha", "result": 9.0}, {"measurement": "MOOVA herbicidal effect rating", "setting": "MOOVA (Monochoria); 0.1250 kg/ha", "result": 9.0}, {"measurement": "MOOVA herbicidal effect rating", "setting": "MOOVA (Monochoria); 0.2500 kg/ha", "result": 9.0}, {"measurement": "Herbicidal rating IPOHE", "setting": "[11]; rate 0.0158 kg/ha", "result": 7.0}, {"measurement": "Herbicidal rating IPOHE", "setting": "[11]; rate 0.0315 kg/ha", "result": 9.0}, {"measurement": "Herbicidal rating IPOHE", "setting": "[11]; rate 0.0630 kg/ha", "result": 9.0}]}]}
